Where “and” joins values, the source holds several entries; their conditions need not be identical. Equal values may be shown once. Entries after “also recorded” stand apart in the source; their conditions may differ. Read-outs that look alike come from different tables or passages of the source.
What was measured:
[1] = tested on: wild-type and juxtamembrane-mutated c-Kit receptors; details: results in cell cycle arrest and apoptosis of c-Kit dependent cell lines; cited from earlier work
[2] = tested on: patients with PPMS or rfSPMS;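 note: oral masitinib started at 3 or 6 mg/kg/day split twice daily, with up to two 1.5 mg/kg/day increases permitted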
Protocol: Patients were randomized to receive orally administered masitinib at an initial dose of 3 or 6 mg/kg/day b.i.d, with two dose increases of 1.5 mg/kg/day permitted in the event of lack of activity and manageable toxicity. Masitinib and placebo were supplied as 100 or 200 mg tablets. The initial study had three arms but this was amended to close the 3 mg/kg/day bid arm after approximately 1 year.
MS evaluations were performed at screening, at week 0 (baseline), at month 1, 2, 3, 6, 9, 12, 18 and 24 or at the withdrawal visit. […] Masitinib tolerance was assessed by clinical and biological safety parameters.
Patients having SPMS with relapse in the 2 years before inclusion were excluded. No oral or parenteral concomitant corticosteroids were permitted for the duration of study, except in case of protocol-defined demyelinating event (methylprednisolone at 1 g/day for 3 days). No immunomodulating, immunosuppressing, chemotherapy and paracetamol concomitant administration were permitted for the duration of the study. Concomitant analgesic without anti-inflammatory action and oral narcotic analgesic were not allowed on the day of a study visit until all efficacy evaluations were completed. Concomitant physical therapy was allowed in patients already receiving such therapy at study entry. To manage rash, a mandatory concomitant treatment (cetirizine, 10 mg/day for 30 days) was combined with masitinib.
The latter is a multidimensional, MS-specific outcome measure, comprising of a timed 25-foot walk (T25FW) test measuring leg function and ambulation, a 9-hole peg test (9-HPT) measuring arm and hand function and a Paced Auditory Serial Addition Test 3 seconds (PASAT-3″) measuring cognitive function. The MSFC was calculated as described in the National Multiple Sclerosis Society MSFC administration and scoring manual by averaging the z-scores from each components of the MSFC.
Adverse events (AE) were described by duration, intensity, relation to masitinib and course of action. Intensities were graded either mild (signs and symptoms are present without functional repercussions), moderate (there are functional repercussions without putting the patient's health at risk), or severe (functional alterations or incapacity or definite risk for the patient health).

human cord blood MCs = details: cited from earlier work
[3] = tested on: patients with RRMS or rSPMS
Protocol: A multicenter, open-label, non-controlled, proof-of-concept clinical trial, designed to evaluate the efficacy and safety of oral masitinib administered at 3 or 6 mg/kg/day for 36 weeks in patients with RRMS or rSPMS.
Eligible patients should have had at least one active gadolinium lesion at any of the three MRI performed during an 8 week run-in period and an EDSS score within the range of 2.0 to 6.5 inclusive.

mouse EAE model of MS = test: Mouse EAE model of MS (MOG-induced disease in C57BL/6 mice), daily clinical score; format: in vivo; details: days 26-35
Protocol: The ability and effect of masitinib in the inhibition of MC function in MS was explored using the EAE murine model. The myelin oligodendrocyte glycoprotein (MOG)-induced disease in C57BL/6 mice is considered to be a model for all progressive foinis of MS. C57BL/6 mice were immunized with 300 ng MOG35-55 peptide (an immunological target in the human disease) on days 0 (in complete Freund's adjuvant) and 7 (in incomplete Freund's adjuvant) and 250 ng pertussis was administered intravenously on days 0 and 2. Mice were scored daily by visual assessment of symptoms on a scale of 0-5 where 1 denotes a flaccid tail, 2 denotes hind limb weakness, 3 denotes hind limb paralysis, 4 denotes an inability to right from supine and 5 indicates death. Statistical analyzes of significance between mean clinical scores were performed using Bonferroni's Multiple Comparison Test-One way ANOVA or paired t tests. Statistical analyses were performed for the daily intervals between days 26-35. Five mice per experimental group were administrated the following treatment every day from the first day of immunization (day 0): • Vehicle (PBS) • Masitinib 25 mg/kg, 2 times per day, intraperitoneal injection • Masitinib 12.5 mg/kg, 2 times per day, intraperitoneal injection

[4] = during the treatment period (W0 to W36)

In the case of `Cc1ccc(NC(=O)c2ccc(CN3CCN(C)CC3)cc2)cc1Nc1nc(-c2cccnc2)cs1` [masitinib, 4-(4-methylpiperazin-1-ylmethyl)-N-[4-methyl-3-(4-pyridin-3ylthiazol-2-ylamino)phenyl]benzamide], the “inhibitory effect on c-Kit receptors” value [1] is given as “strong inhibitory effect”, the “MSFC mean percentage change from baseline” value (shortened to “MSFC mean percentage change”) ([2]; All (masitinib n = 24), M3, LOCF) is given as 78% and the “MSFC mean percentage change” value ([2]; All (masitinib n = 24), M3, LOCF, listed as Masitinib) is given as 78 ± 284%. For the same compound, the “MSFC mean percentage change” value ([2]; All (masitinib n = 24), M6, LOCF) was 156 ± 274%, the “MSFC mean percentage change” value ([2]; All (masitinib n = 24), M9, LOCF) was 70 ± 267% and the “MSFC mean percentage change” value ([2]; All (masitinib n = 24), M12, LOCF) was 103 ± 189%. The “MSFC mean percentage change” value ([2]; All (masitinib n = 24), M18, LOCF) was “+96%”, the “MSFC mean percentage change” value ([2]; All (masitinib n = 24), M18, LOCF, listed as Masitinib) was 96 ± 191% and the “MSFC mean percentage change” value ([2]; PPMS (masitinib n = 9), M3, LOCF) was “+108%”. The “MSFC mean percentage change” value ([2]; PPMS (masitinib n = 9), M3, LOCF, listed as Masitinib) was 108 ± 435%, the “MSFC mean percentage change” value ([2]; PPMS (masitinib n = 9), M6, LOCF) was 202 ± 353% and the “MSFC mean percentage change” value ([2]; PPMS (masitinib n = 9), M9, LOCF) was 56 ± 410%. For the same compound, the “MSFC mean percentage change” value ([2]; PPMS (masitinib n = 9), M12, LOCF) was 134 ± 268%, the “MSFC mean percentage change” value ([2]; PPMS (masitinib n = 9), M18, LOCF) was “+134%” and the “MSFC mean percentage change” value ([2]; PPMS (masitinib n = 9), M18, LOCF, listed as Masitinib) was 134 ± 268%. The EDSS score course ([2]; PPMS population) was “stable”, the “Mean 9-HPT raw score change” value ([2]; at month 18) was -1.6 s and the “Mean PASAT-3″ raw score change” value ([2]; at month 18) was “+6.0”. The “Mean T25FW raw score change” value ([2]; at month 18) was “+1.6 seconds”, the death ([2]; during the study) was “No death” and the “MSQLI subscale SSS, mean percentage change from baseline” value ([2]; ex-post, n = 4) was −6.9 ± 29.0%. For the same compound, the “MSQLI subscale VIS, mean percentage change from baseline” value ([2]; ex-post, n = 4) was 0 ± 0%, the “MSQLI subscale SF-36, mean percentage change from baseline” value ([2]; ex-post, n = 5) was 12.7 ± 24.3% and the “MSQLI subscale PDQ, mean percentage change from baseline” value ([2]; ex-post, n = 6) was 1.1 ± 11.7%. For the same compound, the “MSQLI subscale BoCS, mean percentage change from baseline” value ([2]; ex-post, n = 7) was −3.1 ± 8.8%, the “MSQLI subscale MSSS, mean percentage change from baseline” value ([2]; ex-post, n = 7) was 6.2 ± 9.4% and the “MSQLI subscale PES, mean percentage change from baseline” value ([2]; ex-post, n = 7) was −3.9 ± 12.2%. The “MSQLI subscale BLCS, mean percentage change from baseline” value ([2]; ex-post, n = 8) was 21.5 ± 72.4%, the “MSQLI subscale MFIS, mean percentage change from baseline” value ([2]; ex-post, n = 8) was −3.0 ± 14.9% and the “MSQLI subscale MHI, mean percentage change from baseline” value ([2]; ex-post, n = 9) was 15.2 ± 25.99%. For the same compound, the “number of AEs reported by investigators” value ([2]; masitinib group n = 27) was 100, the “patients reporting AEs (adverse events)” value ([2]; masitinib group n = 27) was 85% and the “patients reporting a serious, non-fatal AE” value ([2]; masitinib group n = 27) was 33%. For the same compound, the “patients reporting a severe AE suspected to be related to therapy” value ([2]; masitinib group n = 27) was 26%, the “patients with an AE leading to masitinib discontinuation” value ([2]; masitinib group n = 27) was 26% and the “Asthenia, number of patients” value ([2]; masitinib n = 27) was 11. For the same compound, the “Asthenia, percent of patients” value ([2]; masitinib n = 27) was 41%, the “Diarrhea, number of patients” value ([2]; masitinib n = 27) was 3 and the “Diarrhea, percent of patients” value ([2]; masitinib n = 27) was 11%. The “Nausea, number of patients” value ([2]; masitinib n = 27) was 7, the “Nausea, percent of patients” value ([2]; masitinib n = 27) was 26% and the “Rash, number of patients” value ([2]; masitinib n = 27) was 3. The “Rash, percent of patients” value ([2]; masitinib n = 27) was 11%, the “Urinary Tract Infection, number of patients” value ([2]; masitinib n = 27) was 3 and the “Urinary Tract Infection, percent of patients” value ([2]; masitinib n = 27) was 11%. For the same compound, the “Weight Decreased, number of patients” value ([2]; masitinib n = 27) was 3, the “Weight Decreased, percent of patients” value ([2]; masitinib n = 27) was 11% and the “effect on MSQLI subscales (SF-36, MFIS, PES, PDQ, MHI, MSSS)” value ([2]; over the course of treatment) was “improved”. For the same compound, the “mean change in EDSS” value ([2]; overall, over 18 months) was under 0.5, the “MSFC mean percentage change” value ([2]; rfSPMS (masitinib n = 15), M3, LOCF) was “+60%” and the “MSFC mean percentage change” value ([2]; rfSPMS (masitinib n = 15), M3, LOCF, listed as Masitinib) was 60 ± 152%. The “MSFC mean percentage change” value ([2]; rfSPMS (masitinib n = 15), M6, LOCF) was 129 ± 223%, the “MSFC mean percentage change” value ([2]; rfSPMS (masitinib n = 15), M9, LOCF) was 78 ± 146% and the “MSFC mean percentage change” value ([2]; rfSPMS (masitinib n = 15), M12, LOCF) was 84 ± 130%. The “MSFC mean percentage change” value ([2]; rfSPMS (masitinib n = 15), M18, LOCF) was “+73%”, the “MSFC mean percentage change” value ([2]; rfSPMS (masitinib n = 15), M18, LOCF, listed as Masitinib) was 73 ± 131% and the EDSS score course ([2]; rfSPMS population) was “remained stable”. For the same compound, the “brain volume (MS-related imaging)” value ([2]; throughout the study, masitinib group) was “two patients experienced a brain volume increase”, the FcER1-mediated degranulation (human cord blood MCs) was “inhibition” and the tolerability overall ([3]; 3 or 6 mg/kg/day oral) was “relatively well tolerated”. The EDSS ([3]; 36-week study) was “neither improvement nor progression”, the “average number of T1 lesions” value ([3]; after 12 weeks of treatment (run-in period 5.35), 4 patients) was 1.5 lesions and the “average volume of T1 lesions” value ([3]; after 12 weeks of treatment (run-in period 777 mm^3)) was 54 mm^3. The “average number of T1 lesions” value ([3]; after 20 weeks of treatment (run-in period 5.35), 4 patients) was 0.25 lesions, the “average volume of T1 lesions” value ([3]; after 20 weeks of treatment (run-in period 777 mm^3)) was 40 mm^3 and the “T1 gadolinium-enhancing lesion number” value ([3]; all patients, at consecutive time points during the study) was “reduced to none”. For the same compound, the “patients in whom both number and volume of T1 lesions decreased” value ([3]; during masitinib treatment) was 3/4, the “average number of T1 lesions” value [3, 4] was 1.0 lesion and the “average volume of T1 lesions” value [3, 4] was 99 mm^3. For the same compound, the “number and volume of T2 hyperintense lesions and T1 hyperintense lesions” value ([3]; during treatment) was “remained globally stable”, the death ([3]; human, in vivo) was “No death” and the “total AEs reported during the treatment period” value ([3]; in two patients, all at doses of ≧6 mg/kg/day) was 11. The “patients experiencing relapses during treatment” value ([3]; one patient out of four, three relapses) was 25%, the EDSS score maintained ([3]; patient in the study extension phase, to W84) was 2.5 and the “relapse-free duration of individual patients” value ([3]; three patients, respectively) was 7 months and 11.5 months and 25 months. For the same compound, the “p value, mean clinical score, vehicle versus masitinib 12.5 mg/kg” value (mouse EAE model of MS; 12.5 mg/kg 2 times per day intraperitoneal) was “p < 0.001”, the “p value, mean clinical score, vehicle versus masitinib 25 mg/kg” value (mouse EAE model of MS; 25 mg/kg 2 times per day intraperitoneal) was “p < 0.001” and the “p value, mean clinical score, masitinib 25 mg/kg versus masitinib 12.5 mg/kg” value (mouse EAE model of MS; 2 times per day intraperitoneal) was “p < 0.001”. For the same compound, the “mean clinical score relative to vehicle” value (mouse EAE model of MS; both doses (25 and 12.5 mg/kg 2 times per day i.p.)) was “significant differences in mean clinical score; also recorded: significant reduction in disease”.
